Results as given in patent US20230152329A1, “NOVEL SPLIT-LUCIFERASE ENZYMES AND APPLICATIONS THEREOF” (ARIZONA BOARD OF REGENTS ON BEHALF OF THE UNIVERSITY OF …, priority 2020, published 2023).
Changes are numbered by the printed parent chain. In names and notes the source's numbering stands. Where two headings read alike, the source gives them in different places.

B1: Y33A: first-generation split-Fluc228 with N-FLuc228 Y33A single mutant (SEQ ID NO: 8) (protein)
chain: MEDAKNIKKGPAPFYPLEDGTAGEQLHKAMKRAALVPGTIAFTDAHIEVNITYAEYFEMSVRLAEAMKRYGLNTNHRIVVCSENSLQFFMPVLGALFIGVAVAPANDIYNERELLNSMNISQPTVVFVSKKGLQKILNVQKKLPIIQKIIIMDSKTDYQGFQSMYTFVTSHLPPGFNEYDFVPESFDRDKTIALIMNSSGSTGLPKGVALPHRTACVRFSHARDPIFG
B2: H46A: first-generation split-Fluc228 with N-FLuc228 H46A single mutant (SEQ ID NO: 7) (protein)
chain: B1 chain with A33Y, H46A

Tests used:
[1] = biological target: T1, protein-protein interaction of Bcl-xL and BAK (Homo sapiens, UniProt Q07817); test: In cellulo split-luciferase assay, inhibition of Bcl-xL/BAK interaction in HEK293T cells; assay type: cell-based; conditions: 14 hours; for inhibition at 10 µM: HEK-293T, read-out: Percent Inhibition
T1 construct: appending the soluble domain of Bcl-xL to the C-terminal fragment of N-Fluc228 Y33A/H46A; expressed in transfected cells; host or cells: HEK293T, transient transfection (pcDNA 3.1 constructs)
T1 sequence (Q07817 1-209 limits assumed): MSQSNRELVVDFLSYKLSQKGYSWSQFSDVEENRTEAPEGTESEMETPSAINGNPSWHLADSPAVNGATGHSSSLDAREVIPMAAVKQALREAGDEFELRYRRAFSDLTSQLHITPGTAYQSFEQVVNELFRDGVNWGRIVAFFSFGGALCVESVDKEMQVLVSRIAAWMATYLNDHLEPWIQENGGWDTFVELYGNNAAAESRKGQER
Description: N-terminal halves of firefly luciferase (N-Fluc) constructs were generated by fusing FK506-binding protein (FKBP) or Bcl-xL 209 (CΔ24) to the C-terminal of N-Fluc with a 27-residue glycine-serine linker in pcDNA 3.1 via restriction cloning. […] For in vitro assays, mRNA was generated using RiboMaX large scale RNA production system (T7) for 4 h at 30° C. and subsequently purified using G50-microcolumns.
HEK293T cells were maintained in DMEM supplemented with 10% (v/v) FBS, 2.5 μg/mL Amphotericin B, 100 U/mL penicillin, and 100 μg/mL streptomycin, and in a 37° C. water-saturated incubator with 5% CO2. For in cellulo experiments, 3×10^6 cells were seeded in 60 mm dishes for 24 h and then transiently transfected with equal amounts of DNA of each luciferase fragment using PolyJet In Vitro DNA Transfection Reagent. Twelve hours following transfection, 2.5×10^5 cells were transferred to 24-well plates and incubated for an additional 24 h. […] All reported data was done at least in duplicate and repeated on different days. Data from luciferase assays were all normalized by lysate load and with background correction of equivalently treated mock transfected HEK293T cells.
Split-Fluc228 Y33A/H46A constructs were created by appending the soluble domain of Bcl-xL to the C-terminal fragment of N-Fluc228 Y33A/H46A with a 27-residue glycine-serine linker, giving N-Fluc228 Y33A/H46A-GS27-Bcl-xL. The BH3 domain of BAK (20 residues) was appended to the N-terminal fragment of C-Fluc229 through a 30-residue glycine-serine linker, providing BAK-GS30-C-Fluc229.

[2] = biological target: T2, FKBP-Rapamycin-FRB (Homo sapiens, UniProt P42345+P62942); test: Cell-free (rabbit reticulocyte lysate) rapamycin-inducible split-luciferase assay; assay type: biochemical; conditions: cell-free RRL; for rapamycin dependent luminescence signal (overall signal): 100 nM rapamycin; for unassisted/background complementation: without added rapamycin (DMSO)
T2 construct: N-terminal fragment of firefly luciferase (N-Fluc); split at 159, 228, 374, 397 or 405; C-terminal fragment of firefly luciferase (C-Fluc); made in house; host or cells: cell-free translation in rabbit reticulocyte lysate (RRL) from in vitro transcribed mRNA
T2 sequence (P62942 whole entry, the tested form may be a part): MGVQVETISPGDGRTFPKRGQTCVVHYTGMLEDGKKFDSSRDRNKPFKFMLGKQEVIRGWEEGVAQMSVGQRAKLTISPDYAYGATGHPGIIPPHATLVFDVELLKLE
T2 sequence (P42345 2012-2144 limits assumed): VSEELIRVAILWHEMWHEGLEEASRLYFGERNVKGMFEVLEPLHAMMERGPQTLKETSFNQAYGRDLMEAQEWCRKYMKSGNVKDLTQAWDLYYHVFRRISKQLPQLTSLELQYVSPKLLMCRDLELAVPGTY
Source text: N-terminal halves of firefly luciferase (N-Fluc) constructs were generated by fusing FK506-binding protein (FKBP) or Bcl-xL 209 (CΔ24) to the C-terminal of N-Fluc with a 27-residue glycine-serine linker in pcDNA 3.1 via restriction cloning. C-terminal halves of firefly luciferase (C-Fluc) were created by fusing either FKBP rapamycin-binding (FRB) domain or the BH3-domain of BAK to the N-terminal of C-Fluc with a 30-residue glycine-serine linker in pcDNA 3.1 via restriction cloning. For in vitro assays, mRNA was generated using RiboMaX large scale RNA production system (T7) for 4 h at 30° C. and subsequently purified using G50-microcolumns.
Following translation, 20 μL of lysate was added to 80 μL of L-Glo luciferase assay reagent, incubated at room temperature for 1 min and luminescence was subsequently read using a luminometer with 10 s integration time. All reported data are at least in duplicate and assays have been repeated on different days. Data from the reported luciferase assays were all normalized with background correction of equivalent treatment of RRL without added mRNA.
The N-terminal fragment of each split-luciferase was fused to FKBP at the C-terminal end and the C-terminal fragment of each split-luciferase was fused to FRB at the N-terminal end. Referring to FIG. 2A, the linkers between the enzyme fragments and the FKBP or FRB included 27 to 30 residue glycine-serine linkers. With the five split-Fluc constructs in hand, complementation was tested employing a cell-free protein expression approach using rabbit reticulocyte lysate (RRL), which allows for rapid protein expression and analysis. […] Following incubation, L-Glo reagent containing the substrate, luciferin, was added to each of the split-Fluc pairs and luminescence was subsequently measured.

[3] = 10 μM ABT-737, N-Fluc228 WT-Bcl-xL CΔ24 with BAK-CFluc229, HEK293T
[4] = 10 μM ABT-737, N-Fluc228 Y33A/H46A-Bcl-xL CΔ24 with BAK-CFluc229, HEK293T

Molecule	Average RLU [1, 3]	Average RLU [1, 4]	Percent Inhibition [1, 4] [%]	inhibition at 10 µM [1, 3] [%]	inhibition at 10 µM [1, 4] [%]	rapamycin dependent luminescence signal (overall signal) [2]	unassisted/background complementation [2]
CN(C)CC[C@H](CSc1ccccc1)Nc1ccc(S(=O)(=O)NC(=O)c2ccc(N3CCN(Cc4ccccc4-c4ccc(Cl)cc4)CC3)cc2)cc1[N+](=O)[O-] [ABT-737]	438,145 RLU	2,258 RLU	99.8	96.1	> 99	–	–
B1	–	–	–	–	–	maintaining strong rapamycin dependent signals	significantly reduced unassisted complementation
B2	–	–	–	–	–	maintaining strong rapamycin dependent signals	significantly reduced unassisted complementation
